Source: patent US20260007680A1, “Compounds and Their Use as PDE4 Activators” (Mironid Limited, priority 2022, published 2026)

Experiments:
PDE4D5 = target: T1, PDE4D5 (Homo sapiens, UniProt Q08499); experiment: PDE assay, activation of PDE4D5 long form (Experiment 1); assay type: biochemical; settings: 100 μM test compound; mean % increase in counts over basal activity
T1 construct: Using Full-Length Human PDE4 Isoforms; Long Forms PDE4D5, PDE4C3, PDE4B1 and Short Form PDE4B2; made in house; cytosol fraction of cell lysate
T1 sequence (Q08499 1-745 isoform Q08499-6): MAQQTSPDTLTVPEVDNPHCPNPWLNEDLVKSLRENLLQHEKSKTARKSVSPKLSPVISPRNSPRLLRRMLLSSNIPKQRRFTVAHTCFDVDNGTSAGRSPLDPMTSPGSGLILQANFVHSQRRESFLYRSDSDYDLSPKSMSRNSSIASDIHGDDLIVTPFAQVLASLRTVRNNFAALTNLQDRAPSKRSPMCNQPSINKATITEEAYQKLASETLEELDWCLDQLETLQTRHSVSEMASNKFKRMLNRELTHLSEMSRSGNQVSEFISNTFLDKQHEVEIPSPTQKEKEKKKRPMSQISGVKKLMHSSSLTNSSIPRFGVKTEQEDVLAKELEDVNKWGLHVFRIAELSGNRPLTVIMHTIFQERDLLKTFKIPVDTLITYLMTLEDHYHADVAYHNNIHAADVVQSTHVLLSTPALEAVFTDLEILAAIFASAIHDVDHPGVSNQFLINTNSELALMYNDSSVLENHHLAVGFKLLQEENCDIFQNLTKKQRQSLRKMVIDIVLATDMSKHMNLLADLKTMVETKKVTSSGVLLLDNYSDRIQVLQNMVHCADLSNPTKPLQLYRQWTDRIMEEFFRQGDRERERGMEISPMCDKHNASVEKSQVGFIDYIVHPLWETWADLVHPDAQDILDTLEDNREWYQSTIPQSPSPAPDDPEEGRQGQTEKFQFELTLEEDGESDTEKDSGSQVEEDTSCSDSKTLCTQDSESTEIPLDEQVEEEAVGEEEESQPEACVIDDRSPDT
Procedure: (§1) One suitable method of detecting whether or not a compound is capable of serving as an activator of a PDE4 long form is using a two-step radio-assay procedure described in Experiment 1. In summary, the method involves incubating a PDE4 long form with a test small molecule activator, together with [^3H]-labelled cAMP to assess alterations in the breakdown of cAMP to the 5′-adenosine monophosphate (5′-AMP) product. A sample of the reaction mixture from such an incubation is subsequently treated with snake venom 5′-nucleotidase to allow conversion of the nucleotide [^3H]-labelled 5′-AMP to the uncharged nucleoside [^3H]-labelled adenosine, which can be separated and quantified to assess PDE4 activity and the effect of the test compound (Thompson, W. J. and Appleman, M. M. Biochemistry 10: 311-316, 1971, with some modifications as described in: Marchmont, R. J. and Houslay, M. D. Biochem J. 187: 381-92, 1980).
(§2) Experiment 1: Measurement of Modulation of Enzyme Activity by PDE4 Long Form Activators of the Present Invention Using Full-Length Human PDE4 Isoforms; Long Forms PDE4D5, PDE4C3, PDE4B1 and Short Form PDE4B2 • (Marchmont, R. J. and Houslay, M. D. Biochem. J. 187: 381-92, 1980)
For transient transfection of exogenous PDE4 long isoforms, HEK 293 cells were transfected with pcDNA3.1 or pDEST^TM PDE4 expression vectors using Lipofectamine LTX/Plus reagent (Invitrogen) as outlined by the manufacturer.
(§3) Where stable cell lines were generated the clonal isolates were expanded to obtain cell lines that stably expressed the full-length human PDE4 long isoforms and the full length human PDE4B2 short isoform. These were called the HEK-PDE4D5, HEK-PDE4B1 and HEK-PDE4B2 cell lines, respectively.
HEK-PDE4D5 cells were seeded out in 100 mm plates and incubated at 37° C. in an atmosphere of 5% CO2, 95% air. Cell lysates were prepared using KHEM buffer [50 mM KCl, 10 mM EGTA, 50 mM HEPES (pH 7.2), 1.92 mM MgCl2].
To prepare the cell lysates, the 100 mm plates containing the cells were placed on ice and washed with ice-cold PBS (phosphate buffered saline, pH 7.4). KHEM buffer (500 μL) was added to the cells. Cells were then scraped off the plate and triturated using a needle (BD Microlance™ 0.8, 40 mm). The lysed cells were then centrifuged at 2000 rpm for 10 minutes to remove cell debris and the supernatant (cell lysate containing recombinant PDE4D5) was transferred to a fresh tube and kept on ice.
The cell lysate containing recombinant PDE4D5 was transferred into a centrifuge tube and placed into an ultracentrifuge (BECKMAN COULTER) and spun at high speed (100,000 g) for 30 minutes at 4° C. The cytosol fraction was then collected and its protein amount determined using a BCA protein assay.
PDE assays were performed in thin walled V-bottomed 96-well plates. The assays were performed at a final concentration of 10 mM Tris/5 mM MgCl2 plus PDE4D5 cell lysate cytosol fraction, containing over-expressed PDE4D5, with and without test compound. The lysate/compound mix were incubated together for 15 min at room temperature on an orbital shaker prior to addition of [^3H] cAMP (final concentration 1 μM [^3H] cAMP; Perkin Elmer) to a final volume of 50 μL per reaction. The reactions were then incubated for 10 minutes at 30° C., terminated by heating for 2 min at 95° C. and allowed to cool. Snake venom (12.5 μL of 1 mg/mL; Crotalus atrox, Sigma) was then added and the plates were agitated and incubated for a further 15 minutes at 30° C. Dowex ion exchange resin (Sigma, chloride form, 200-400 mesh; 200 μL; prepared as a 1:1 Dowex:water stock, thoroughly re-suspended and diluted 2:1 with ethanol) was then added to each well and the plates incubated for 15 min at room temperature on an orbital shaker ensuring sufficient agitation for resin suspension (550 RPM). The reaction mixture was then transferred to a 96 well filter plate (Millipore; 0.45 μm pore size) and filtered into a receiving 96-well plate to remove the dowex suspension. […]

PDE4B2 = target: T2, PDE4B2 (Homo sapiens, UniProt Q07343); experiment: PDE assay, PDE4B2 short form (Experiment 1); assay type: biochemical; settings: 100 μM test compound; mean % increase in counts over basal activity
T2 construct: the full length human PDE4B2 short isoform; made in house; cytosol fraction of cell lysate, prepared as described for PDE4D5
T2 sequence (Q07343 1-564 isoform Q07343-2): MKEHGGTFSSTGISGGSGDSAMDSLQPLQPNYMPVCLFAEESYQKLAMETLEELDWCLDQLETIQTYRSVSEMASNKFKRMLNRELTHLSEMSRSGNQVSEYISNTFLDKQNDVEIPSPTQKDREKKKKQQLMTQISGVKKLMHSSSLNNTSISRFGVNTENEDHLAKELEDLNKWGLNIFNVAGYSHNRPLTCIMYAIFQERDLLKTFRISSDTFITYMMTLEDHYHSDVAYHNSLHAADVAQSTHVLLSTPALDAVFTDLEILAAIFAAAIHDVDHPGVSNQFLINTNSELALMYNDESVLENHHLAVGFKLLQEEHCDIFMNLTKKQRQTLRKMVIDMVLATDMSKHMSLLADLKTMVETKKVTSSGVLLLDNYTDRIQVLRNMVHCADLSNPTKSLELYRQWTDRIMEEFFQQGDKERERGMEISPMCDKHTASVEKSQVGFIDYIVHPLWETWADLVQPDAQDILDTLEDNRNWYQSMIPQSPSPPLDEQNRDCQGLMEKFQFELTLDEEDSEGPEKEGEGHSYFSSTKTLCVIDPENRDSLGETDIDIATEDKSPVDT
Procedure: as §1, §2, §3
PDE assays were performed in thin walled V-bottomed 96-well plates. The assays were performed at a final concentration of 10 mM Tris/5 mM MgCl2 plus PDE4D5 cell lysate cytosol fraction, containing over-expressed PDE4D5, with and without test compound. The lysate/compound mix were incubated together for 15 min at room temperature on an orbital shaker prior to addition of [^3H] cAMP (final concentration 1 μM [^3H] cAMP; Perkin Elmer) to a final volume of 50 μL per reaction. The reactions were then incubated for 10 minutes at 30° C., terminated by heating for 2 min at 95° C. and allowed to cool. Snake venom (12.5 μL of 1 mg/mL; Crotalus atrox, Sigma) was then added and the plates were agitated and incubated for a further 15 minutes at 30° C. Dowex ion exchange resin (Sigma, chloride form, 200-400 mesh; 200 μL; prepared as a 1:1 Dowex:water stock, thoroughly re-suspended and diluted 2:1 with ethanol) was then added to each well and the plates incubated for 15 min at room temperature on an orbital shaker ensuring sufficient agitation for resin suspension (550 RPM). The reaction mixture was then transferred to a 96 well filter plate (Millipore; 0.45 μm pore size) and filtered into a receiving 96-well plate to remove the dowex suspension. 30 μL of the filtered solution was then transferred to the wells of an Opti-plate (Perkin Elmer) 96 well assay plate and 120 μL of Microscint 40 scintillation fluid was added. The plate was then placed on an orbital shaker for 10 min at high speed (900 rpm) to mix the sample with scintillation fluid prior to quantitation using a plate based scintillation counter (Top-Count).
The % increase in counts in the presence of test compound at a particular concentration indicates the % increase in enzyme activity at that concentration.

SMILES	activation at 100 µM (PDE4D5) [%]	activation at 100 µM (PDE4B2) [%]
O=C(N[C@H]1CCOc2ccccc21)c1ccc2[nH]c(-c3cccnc3)nc2c1 [Example 8, (S)—N-(chroman-4-yl)-2-(pyridin-3-yl)-1H-benzo[d]imidazole-5-carboxamide]	52	-35
O=C(N[C@H]1CCc2ccccc21)c1ccc2[nH]c(-c3cccnc3)nc2c1 [Example 10, (S)—N-(2,3-dihydro-1H-inden-1-yl)-2-(pyridin-3-yl)-1H-benzo[d]imidazole-5-carboxamide]	46	-35
O=C(N[C@@H]1CCOc2ccc(Cl)cc21)c1ccc2[nH]c(-c3cccnc3)nc2c1 [Example 11, (R)—N-(6-chlorochroman-4-yl)-2-(pyridin-3-yl)-1H-benzo[d]imidazole-5-carboxamide]	35	–
CN1CCC(c2nc3cc(C(=O)N[C@H]4CCCc5ccccc54)ccc3[nH]2)CC1 [Example 15, (S)-2-(1-methylpiperidin-4-yl)-N-(1,2,3,4-tetrahvdronaphthalen-1-yl)-1H-benzo[d]imidazole-5-carboxamide]	123	3
Cc1ccc(-c2nc3ccc(C(=O)N[C@H]4CCOc5ccccc54)cn3n2)c(C)n1 [Example 39, (S)—N-(chroman-4-yl)-2-(2,6-dimethylpyridin-3-yl)-[1,2,4]triazolo[1,5-a]pyridine-6-carboxamide]	63	-28
O=C(N[C@H]1CCOc2ccccc21)c1cnc2cc(-c3cccnc3)nn2c1 [Example 90, (S)—N-(chroman-4-yl)-2-(pyridin-3-yl)pyrazolo[1,5-a]pyrimidine-6-carboxamide]	99	-8

Results, then the compound that gave them:

activation at 100 µM (PDE4D5) [%]	activation at 100 µM (PDE4B2) [%]	SMILES
176	0	O=C(N[C@H]1CCOc2ccccc21)c1ccc2nc(-c3cccnc3)nn2c1 [Example 34, (S)—N-(chroman-4-yl)-2-(pyridin-3-yl)-[1,2,4]triazolo[1,5-a]pyridine-6-carboxamide]
68	-11	Cc1ccc(-c2nc3ccc(C(=O)N[C@H]4CCOc5ccccc54)cn3n2)cn1 [Example 35, (S)—N-(chroman-4-yl)-2-(6-methylpyridin-3-yl)-[1,2,4]triazolo[1,5-a]pyridine-6-carboxamide]
57	6	Cc1cncc(-c2nc3ccc(C(=O)N[C@H]4CCOc5ccccc54)cn3n2)c1 [Example 36, (S)—N-(chroman-4-yl)-2-(5-methylpyridin-3-yl)-[1,2,4]triazolo[1,5-a]pyridine-6-carboxamide]
127	-24	Cc1ccncc1-c1nc2ccc(C(=O)N[C@H]3CCOc4ccccc43)cn2n1 [Example 37, (S)—N-(chroman-4-yl)-2-(4-methylpyridin-3-yl)-[1,2,4]triazolo[1,5-a]pyridine-6-carboxamide]
